Results on five compounds are retold here after patent US20260001928A1 (CORTERIA PHARMACEUTICALS, priority 2022, published 2026).

*1 amine or outer side, *2 acyl side, *3 side chain or, on linkers, in order; H or OH if unused. Where a SMILES comes first, the peptide text is derived from it. Side-chain parts run from the residue outwards. [ ]: non-standard residue; d: D form. The star is where a group is joined. C18 diacid = O=C(O)CCCCCCCCCCCCCCCCC(=O)*; γGlu = O=C(O)[C@H](CCC(=O)[*:2])N[*:1]; C12 diacid = O=C(O)CCCCCCCCCCC(=O)*; NMeI = CC[C@H](C)[C@H](NC)C(=O)O; Api = NC1(C(=O)O)CCNCC1; Pentanoyl = CCCCC(=O)*; AEEA = NCCOCCOCC(=O)O; Aib = CC(C)(N)C(=O)O

Assay [1] addresses T1, CFR1R receptor (Homo sapiens, UniProt P34998).
T1 construct: host or cells: CHO-K1 (clone 2)
T1 sequence (P34998 24-415): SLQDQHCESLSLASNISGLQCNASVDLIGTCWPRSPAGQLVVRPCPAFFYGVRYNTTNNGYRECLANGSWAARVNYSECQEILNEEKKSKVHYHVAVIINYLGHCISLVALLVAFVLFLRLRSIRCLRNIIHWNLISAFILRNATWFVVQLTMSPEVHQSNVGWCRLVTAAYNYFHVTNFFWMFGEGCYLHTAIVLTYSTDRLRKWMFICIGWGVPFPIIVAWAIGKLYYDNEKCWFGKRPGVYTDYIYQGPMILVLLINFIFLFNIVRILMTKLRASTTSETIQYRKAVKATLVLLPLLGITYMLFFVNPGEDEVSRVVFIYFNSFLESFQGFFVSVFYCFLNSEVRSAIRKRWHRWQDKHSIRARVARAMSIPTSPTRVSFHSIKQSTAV
As to the kind of experiment: Activity at anti-target CFR1R receptor, cAMP assay in CRF1R-overexpression CHO-K1 cells. It counts as cell-based. The settings on record: 100% = Sauvagine at 100 nM; for EC50: cAMP. The method in brief: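 The method mirrors that used with TeloHAEC cells. Here, thawed clone 2 cells seeded at 4000 cells/well are tested, and 100 nM Sauvagine sets the top of the activation scale.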

The target in assay [2] is T2, human CRF2a receptor (Homo sapiens, UniProt Q13324).
T2 construct: expressed in transfected cells; host or cells: TeloHEAC cells
T2 sequence (Q13324 1-411): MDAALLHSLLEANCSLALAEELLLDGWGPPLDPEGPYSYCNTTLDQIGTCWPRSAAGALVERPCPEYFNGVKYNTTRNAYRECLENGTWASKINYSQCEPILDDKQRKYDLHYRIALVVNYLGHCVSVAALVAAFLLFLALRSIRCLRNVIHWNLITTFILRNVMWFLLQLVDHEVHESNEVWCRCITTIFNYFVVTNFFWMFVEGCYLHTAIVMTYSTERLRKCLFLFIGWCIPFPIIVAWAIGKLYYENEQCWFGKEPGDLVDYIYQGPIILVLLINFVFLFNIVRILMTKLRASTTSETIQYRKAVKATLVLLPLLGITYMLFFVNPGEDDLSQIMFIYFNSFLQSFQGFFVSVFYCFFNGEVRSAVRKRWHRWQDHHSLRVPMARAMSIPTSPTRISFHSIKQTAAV
As to the kind of experiment: Activity at human CRF2a receptor, cAMP functional assay in TeloHEAC cells. It counts as cell-based. Conditions: TeloHEAC cells stably expressing human CRF2a receptor, relative to urocortin 2 (100 nM = 100%). The method in brief: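 TeloHEAC cells stably expressing human CRF2a (10000 cells/well, suspended in HBSS/20 mM HEPES with 2 mM IBMX) were exposed to compounds for 30 min at 37 °C. cAMP was read as the 665/620 nm fluorescence ratio after 1 h at room temperature. EC50 was derived relative to 100 nM urocortin 2, set as 100%.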

In the case of `CC[C@H](C)[C@H](NC)C(=O)N[C@H](C(=O)N[C@@H](CC(C)C)C(=O)N[C@@H](CO)C(=O)N[C@@H](CC(C)C)C(=O)N[C@@H](CC(=O)O)C(=O)N[C@@H](C(=O)N1CCC[C@H]1C(=O)N[C@H](C(=O)N[C@@H](CCCCN)C(=O)N[C@@H](CC(C)C)C(=O)N[C@@H](CCCCNC(=O)CC[C@H](NC(=O)CCCCCCCCCCC(=O)O)C(=O)O)C(=O)N[C@@H](CCCCN)C(=O)N[C@H](C(=O)N[C@@H](CC(C)C)C(=O)N[C@@H](CC(C)C)C(=O)N[C@@H](CCC(=O)O)C(=O)N[C@@H](CCC(N)=O)C(=O)N[C@@H](CCC(=O)O)C(=O)N[C@@H](CCCCN)C(=O)N[C@@H](CCC(N)=O)C(=O)N[C@@H](CCCCN)C(=O)N[C@@H](CCCCN)C(=O)N[C@@H](CCC(N)=O)C(=O)N[C@@H](CCCNC(=N)N)C(=O)N[C@@H](CCC(=O)O)C(=O)N[C@@H](CCC(N)=O)C(=O)N[C@@H](C)C(=O)N[C@@H](CCC(=O)O)C(=O)N[C@H](C(=O)N[C@@H](CC(N)=O)C(=O)NC(C)(C)C(=O)N[C@@H](CCC(N)=O)C(=O)N[C@H](C(=O)N[C@@H](CC(C)C)C(=O)N[C@@H](C)C(=O)N[C@@H](CCC(N)=O)C(=O)N[C@H](C(N)=O)C(C)C)[C@@H](C)CC)[C@@H](C)O)[C@@H](C)CC)[C@@H](C)CC)C(C)C)C(C)C` [compound 186] (H-[NMeI]VLSLD[dV]PIKLK([γGlu-C12 diacid])KILLEQEKQKKQREQAETN[Aib]QILAQV-NH2), in assay [1], the “Emax (% I)” value was found to be 2 % I and the EC50 – broadly, the midpoint of the concentration-response curve – was above 250 nM. In assay [2], a half-maximal effect (EC50) was put at 0.79 nM.

For `CC[C@H](C)[C@H](NC(C)=O)C(=O)N[C@H](C(=O)N[C@@H](CC(C)C)C(=O)N[C@@H](CO)C(=O)N[C@@H](CC(C)C)C(=O)N[C@@H](CC(=O)O)C(=O)N[C@@H](C(=O)N1CCC[C@H]1C(=O)N[C@H](C(=O)NCC(=O)N[C@@H](CC(C)C)C(=O)N[C@@H](CCCCNC(=O)CC[C@H](NC(=O)CCCCCCCCCCCCCCCCC(=O)O)C(=O)O)C(=O)N[C@@H](CCCCN)C(=O)N[C@H](C(=O)N[C@@H](CC(C)C)C(=O)N[C@@H](CC(C)C)C(=O)N[C@@H](CCC(=O)O)C(=O)N[C@@H](CCC(N)=O)C(=O)N[C@@H](CCC(=O)O)C(=O)N[C@@H](CCCCN)C(=O)N[C@@H](CCC(N)=O)C(=O)N[C@@H](CCCCN)C(=O)N[C@@H](CCCCN)C(=O)N[C@@H](CCC(N)=O)C(=O)N[C@@H](CCCNC(=N)N)C(=O)N[C@@H](CCC(=O)O)C(=O)N[C@@H](CCC(N)=O)C(=O)N[C@@H](C)C(=O)N[C@@H](CCC(=O)O)C(=O)N[C@H](C(=O)N[C@@H](CC(N)=O)C(=O)NC(C)(C)C(=O)N[C@@H](CCC(N)=O)C(=O)N[C@H](C(=O)N[C@@H](CC(C)C)C(=O)N[C@@H](C)C(=O)N[C@@H](CCC(N)=O)C(=O)N[C@H](C(N)=O)C(C)C)[C@@H](C)CC)[C@@H](C)O)[C@@H](C)CC)[C@@H](C)CC)C(C)C)C(C)C` [compound 191] (Ac-IVLSLD[dV]PIGLK([γGlu-C18 diacid])KILLEQEKQKKQREQAETN[Aib]QILAQV-NH2), in assay [1], the “Emax (% I)” value was determined as 54 % I. Also, it took 0.18 nM to reach a half-maximal effect in assay [2] (EC50).

For `CC[C@H](C)[C@H](NC)C(=O)N[C@H](C(=O)N[C@@H](CC(C)C)C(=O)N[C@@H](CO)C(=O)N[C@@H](CC(C)C)C(=O)N[C@@H](CC(=O)O)C(=O)N[C@@H](C(=O)N1CCC[C@H]1C(=O)N[C@H](C(=O)NCC(=O)N[C@@H](CC(C)C)C(=O)N[C@@H](CCCCNC(=O)CC[C@H](NC(=O)CCCCCCCCCCCCCCCCC(=O)O)C(=O)O)C(=O)N[C@@H](CCCCN)C(=O)N[C@H](C(=O)N[C@@H](CC(C)C)C(=O)N[C@@H](CC(C)C)C(=O)N[C@@H](CCC(=O)O)C(=O)N[C@@H](CCC(N)=O)C(=O)N[C@@H](CCC(=O)O)C(=O)N[C@@H](CCCCN)C(=O)N[C@@H](CCC(N)=O)C(=O)N[C@@H](CCCCN)C(=O)N[C@@H](CCCCN)C(=O)N[C@@H](CCC(N)=O)C(=O)N[C@@H](CCCNC(=N)N)C(=O)N[C@@H](CCC(=O)O)C(=O)N[C@@H](CCC(N)=O)C(=O)N[C@@H](C)C(=O)N[C@@H](CCC(=O)O)C(=O)N[C@H](C(=O)N[C@@H](CC(N)=O)C(=O)NC(C)(C)C(=O)N[C@@H](CCC(N)=O)C(=O)N[C@H](C(=O)N[C@@H](CC(C)C)C(=O)N[C@@H](C)C(=O)N[C@@H](CCC(N)=O)C(=O)N[C@H](C(N)=O)C(C)C)[C@@H](C)CC)[C@@H](C)O)[C@@H](C)CC)[C@@H](C)CC)C(C)C)C(C)C` [compound 192] (H-[NMeI]VLSLD[dV]PIGLK([γGlu-C18 diacid])KILLEQEKQKKQREQAETN[Aib]QILAQV-NH2), the “Emax (% I)” value in assay [1] came to 19 % I. In addition, the EC50 in assay [1] is above 250 nM; in assay [2], 0.11 nM.

With `CCCCC(=O)N[C@H](C(=O)N[C@@H](CC(C)C)C(=O)N[C@@H](CO)C(=O)N[C@@H](CC(C)C)C(=O)N[C@@H](CC(=O)O)C(=O)N[C@@H](C(=O)N1CCC[C@H]1C(=O)N[C@H](C(=O)NCC(=O)N[C@@H](CC(C)C)C(=O)N[C@@H](CCCCNC(=O)CC[C@H](NC(=O)CCCCCCCCCCCCCCCCC(=O)O)C(=O)O)C(=O)N[C@@H](CCCCN)C(=O)N[C@H](C(=O)N[C@@H](CC(C)C)C(=O)N[C@@H](CC(C)C)C(=O)N[C@@H](CCC(=O)O)C(=O)N[C@@H](CCC(N)=O)C(=O)N[C@@H](CCC(=O)O)C(=O)N[C@@H](CCCCN)C(=O)N[C@@H](CCC(N)=O)C(=O)N[C@@H](CCCCN)C(=O)N[C@@H](CCCCN)C(=O)N[C@@H](CCC(N)=O)C(=O)N[C@@H](CCCNC(=N)N)C(=O)N[C@@H](CCC(=O)O)C(=O)N[C@@H](CCC(N)=O)C(=O)N[C@@H](C)C(=O)N[C@@H](CCC(=O)O)C(=O)N[C@H](C(=O)N[C@@H](CC(N)=O)C(=O)NC(C)(C)C(=O)N[C@@H](CCC(N)=O)C(=O)N[C@H](C(=O)N[C@@H](CC(C)C)C(=O)N[C@@H](C)C(=O)N[C@@H](CCC(N)=O)C(=O)N[C@H](C(N)=O)C(C)C)[C@@H](C)CC)[C@@H](C)O)[C@@H](C)CC)[C@@H](C)CC)C(C)C)C(C)C` [compound 195] (Pentanoyl-VLSLD[dV]PIGLK([γGlu-C18 diacid])KILLEQEKQKKQREQAETN[Aib]QILAQV-NH2), the “Emax (% I)” value in assay [1] came out at 42 % I. The compound also had a half-maximal effective concentration (EC50) in assay [2] of 0.21 nM.

For the compound `CC[C@H](C)[C@H](NC(C)=O)C(=O)N[C@H](C(=O)N[C@@H](CC(C)C)C(=O)N[C@@H](CO)C(=O)N[C@@H](CC(C)C)C(=O)N[C@@H](CC(=O)O)C(=O)N[C@@H](C(=O)N1CCC[C@H]1C(=O)N[C@H](C(=O)N[C@@H](CCCCN)C(=O)N[C@@H](CC(C)C)C(=O)N[C@@H](CCCCNC(=O)COCCOCCNC(=O)COCCOCCNC(=O)CC[C@H](NC(=O)CCCCCCCCCCCCCCCCC(=O)O)C(=O)O)C(=O)N[C@@H](CCCCN)C(=O)N[C@H](C(=O)N[C@@H](CC(C)C)C(=O)N[C@@H](CC(C)C)C(=O)N[C@@H](CCC(=O)O)C(=O)N[C@@H](CCC(N)=O)C(=O)N[C@@H](CCC(=O)O)C(=O)N[C@@H](CCCCN)C(=O)N[C@@H](CCC(N)=O)C(=O)N[C@@H](CCCCN)C(=O)NC(C)(C)C(=O)N[C@@H](CCC(N)=O)C(=O)N[C@@H](CCCNC(=N)N)C(=O)N[C@@H](CCC(=O)O)C(=O)N[C@@H](CCC(N)=O)C(=O)N[C@@H](C)C(=O)N[C@@H](CCC(=O)O)C(=O)N[C@H](C(=O)N[C@@H](CC(N)=O)C(=O)NC1(C(=O)N[C@@H](CCC(N)=O)C(=O)N[C@H](C(=O)N[C@@H](CC(C)C)C(=O)N[C@@H](C)C(=O)N[C@@H](CCC(N)=O)C(=O)N[C@H](C(N)=O)C(C)C)[C@@H](C)CC)CCNCC1)[C@@H](C)O)[C@@H](C)CC)[C@@H](C)CC)C(C)C)C(C)C` [compound 196] (Ac-IVLSLD[dV]PIKLK([AEEA-AEEA-γGlu-C18 diacid])KILLEQEKQK[Aib]QREQAETN[Api]QILAQV-NH2), in assay [1], the “Emax (% I)” value is given as 9 % I and the EC50 was above 250 nM. Moreover, the EC50 in assay [2] was 2.2 nM.
